Measured values published in PubChem BioAssay AID1963830 (Molecular Pharmacology Branch, DTP, NCI, 2024).

Test system: 922993-354-T-J3-PDC complex spheroid viability
Assay: Anticancer human tumor 922993-354-T-J3-PDC patient-derived endometrial carcinoma cell line growth inhibition [POLQ]
Details: for IC50: curve of first compound; for viability, T/C: stronger effect = lower value
Experimental: Multicellular complex tumor spheroid response to Polymerase (POL) inhibitors (novobiocin, ART-558, RP6685) in combination with a variety of drugs and investigational agents in selected tumor cell lines
The POL inhibitors (novobiocin, ART-558, and RP6685) were evaluated both individually and in combination with standard of care and investigational anticancer small molecules within a complex spheroid model of solid tumors. . Complex spheroids include a stromal component modeled by human endothelial cells (HUVEC) and fibroblasts modeled by human mesenchymal stem cells (MSCs). The concentration ranges selected for each drug and investigational agent were based upon clinically achievable concentrations if the clinical Cmax of the agent was known.
Compounds. The drugs and investigational agents: novobiocin (NSC847541), ART-558 (NSC835418), RP-6685 (NSC848927), peposertib (NSC802822), ceralasertib (NSC780249), elimusertib (NSC800525), camonsertib (NSC841442), AZD-1390 (NSC803789), olaparib (NSC753686), talazoparib (NSC767125), rucaparib (NSC756644), sotorasib (NSC818433), MRTX-1133 (NSC836407), SN-38 (NSC673596), topotecan (NSC609699), epotoside (NSC141540), doxorubicin (NSC123127), gemcitabine (NSC613327), 5-fluorouracil (NSC19893), paclitaxel (NSC125973), vemurafenib (NSC761431), MSA-2 (NSC828583), SN-011 (NSC837082), adavosertib (NSC754352), prexasertib (NSC758257), carboplatin (NSC241240) and oxaliplatin (NSC266046), were obtained from the National Cancer Institute (NCI) Developmental Therapeutics Program Chemical Repository (21). The FDA-approved anticancer drug set is available from the Developmental Therapeutics Program at https://dtp.cancer.gov/organization/dscb/obtaining/. […] The stock solutions were prepared in dimethyl sulfoxide (DMSO, Sigma-Aldrich, St. Louis, MO, cat. D2650), except for the platinum compounds which were prepared in saline (Quality Biological, Gaithersburg, MD, cat. 114-055-101), at 800-fold the tested concentration and stored at -70 degrees C prior to their use. All drugs and investigational agents were tested over a range starting from a high concentration at or near the clinical Cmax and decreasing in half-log increments. If the clinical Cmax for an agent had not been determined, the highest concentration tested was 10 microM, except for SN-38, which was tested at a high concentration of 1 microM.
Cell Culture. All cells were maintained in an incubator at 37 degrees C and 5% CO2 with 95% humidity. The PDC lines were cultured according to standard operating procedures established by the NCI PDMR (https://pdmr.cancer.gov). Table 3 of the manuscript, lists the cell lines along with the number of the three cell types plated to form the mct-spheroids and media for tumor cell growth. After thawing, all PDC lines, except 997537-175-T-J1-PDC and 415267-285-R-J2-PDC, were cultured in Matrigel-coated flasks prepared with a working solution of 1X Ham's F-12 nutrient mix, without supplementation (Thermo Fisher Scientific, cat. 11765054), 100 U/mL penicillin-streptomycin (Thermo Fisher Scientific, cat. 15140122), and 2.5% Matrigel (Corning Inc., Corning, NY, cat. 354248) for the first three passages. The two PDC lines 997537-175-T-J1-PDC and 415267-285-R-J2-PDC were cultured on uncoated flasks. The 857933-349-R-J2-PDC line was cultured in 6C/Colon 1B media containing advanced DMEM/F-12 (Thermo Fisher Scientific, cat. 12634028), 10 mM HEPES (Thermo Fisher Scientific, cat. 15630080), 1X GlutaMAX supplement (Thermo Fisher Scientific, cat. 35050061), 0.1 mg/mL primocin (InvivoGen, San Diego, CA, cat. ant-pm-2), 10% defined fetal bovine serum, heat inactivated (HyClone Laboratories Inc., Logan, UT, cat. SH30070.03HI), 50% L-WRN conditioned media (ATCC, cat. CRL-3276), 1.25 mM N-Acetyl-L-cysteine (Sigma-Aldrich, cat. A9165), 10 mM nicotinamide (Sigma-Aldrich, cat. N0636), 1X B-27 supplement (Thermo Fisher Scientific, cat. 17504044), 1X N-2 supplement (Thermo Fisher Scientific, cat. […]
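Further: spheroids exposed to the agents for one week.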
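Wherever viability, T/C is given: 100% = DMSO vehicle control wells.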

**Q.** How did the IC50 (second compound 0.0316 µM) turn out when `CCc1cc2c(N3CCc4c(cc(Cn5ccnc5)cc4-c4cn(C)nc4C(F)(F)F)C3=O)cc(C)nc2c(OC)n1` + COC1C(OC(N)=O)C(O)C(Oc2ccc3c(O)c(NC(=O)c4ccc(O)c(CC=C(C)C)c4)c(=O)oc3c2C)OC1(C)C was run?
**A.** Its IC50 is > 10 µM.

**Q.** What about the IC50 (second compound 0.1 µM) of the same molecule?
**A.** The IC50 was > 10 µM.

**Q.** What about the IC50 (second compound 0.316 µM) of the same molecule?
**A.** The IC50 was > 10 µM.

**Q.** And the IC50 (second compound 1 µM)?
**A.** The IC50 was > 10 µM.

**Q.** And the IC50 (second compound 3.16 µM)?
**A.** The IC50 was > 10 µM.

**Q.** And the IC50 (second compound 10 µM)?
**A.** Its IC50 is > 10 µM.

**Q.** And the viability, T/C (second compound 0.0316 µM, first compound 0.0316 µM)?
**A.** The viability, T/C was 113%.

**Q.** And the viability, T/C (second compound 0.0316 µM, first compound 0.1 µM)?
**A.** Its viability, T/C is 98.7%.

**Q.** What about the viability, T/C (second compound 0.0316 µM, first compound 0.316 µM) of the same molecule?
**A.** Its viability, T/C is 99.7%.

**Q.** And the viability, T/C (second compound 0.0316 µM, first compound 1 µM)?
**A.** The viability, T/C was 107%.

**Q.** And the viability, T/C (second compound 0.0316 µM, first compound 3.16 µM)?
**A.** The viability, T/C was 99.8%.

**Q.** And the viability, T/C (second compound 0.0316 µM, first compound 10 µM)?
**A.** The viability, T/C was 80.5%.

**Q.** What about the viability, T/C (second compound 0.1 µM, first compound 0.0316 µM) of the same molecule?
**A.** The viability, T/C was 111%.

**Q.** And the viability, T/C (second compound 0.1 µM, first compound 0.1 µM)?
**A.** Its viability, T/C is 94.3%.

**Q.** And the viability, T/C (second compound 0.1 µM, first compound 0.316 µM)?
**A.** The viability, T/C was 108%.

**Q.** And the viability, T/C (second compound 0.1 µM, first compound 1 µM)?
**A.** Its viability, T/C is 98.1%.

**Q.** And the viability, T/C (second compound 0.1 µM, first compound 3.16 µM)?
**A.** The viability, T/C was 104%.

**Q.** What about the viability, T/C (second compound 0.1 µM, first compound 10 µM) of the same molecule?
**A.** The viability, T/C was 88.9%.

**Q.** What about the viability, T/C (second compound 0.316 µM, first compound 0.0316 µM) of the same molecule?
**A.** The viability, T/C was 103%.

**Q.** What about the viability, T/C (second compound 0.316 µM, first compound 0.1 µM) of the same molecule?
**A.** The viability, T/C was 103%.

**Q.** What about the viability, T/C (second compound 0.316 µM, first compound 0.316 µM) of the same molecule?
**A.** Its viability, T/C is 93.7%.

**Q.** And the viability, T/C (second compound 0.316 µM, first compound 1 µM)?
**A.** Its viability, T/C is 108%.

**Q.** What about the viability, T/C (second compound 0.316 µM, first compound 3.16 µM) of the same molecule?
**A.** The viability, T/C was 94.1%.

**Q.** And the viability, T/C (second compound 0.316 µM, first compound 10 µM)?
**A.** The viability, T/C was 88.1%.

**Q.** What about the viability, T/C (second compound 1 µM, first compound 0.0316 µM) of the same molecule?
**A.** Its viability, T/C is 108%.

**Q.** What about the viability, T/C (second compound 1 µM, first compound 0.1 µM) of the same molecule?
**A.** Its viability, T/C is 111%.

**Q.** And the viability, T/C (second compound 1 µM, first compound 0.316 µM)?
**A.** Its viability, T/C is 103%.

**Q.** And the viability, T/C (second compound 1 µM, first compound 1 µM)?
**A.** Its viability, T/C is 99.2%.

**Q.** And the viability, T/C (second compound 1 µM, first compound 3.16 µM)?
**A.** Its viability, T/C is 90.2%.

**Q.** And the viability, T/C (second compound 1 µM, first compound 10 µM)?
**A.** Its viability, T/C is 82.4%.

**Q.** What about the viability, T/C (second compound 3.16 µM, first compound 0.0316 µM) of the same molecule?
**A.** Its viability, T/C is 95.9%.

**Q.** And the viability, T/C (second compound 3.16 µM, first compound 0.1 µM)?
**A.** Its viability, T/C is 106%.

**Q.** What about the viability, T/C (second compound 3.16 µM, first compound 0.316 µM) of the same molecule?
**A.** The viability, T/C was 108%.

**Q.** And the viability, T/C (second compound 3.16 µM, first compound 1 µM)?
**A.** Its viability, T/C is 95%.

**Q.** And the viability, T/C (second compound 3.16 µM, first compound 3.16 µM)?
**A.** Its viability, T/C is 86.2%.

**Q.** And the viability, T/C (second compound 3.16 µM, first compound 10 µM)?
**A.** The viability, T/C was 80.6%.

**Q.** What about the viability, T/C (second compound 10 µM, first compound 0.0316 µM) of the same molecule?
**A.** Its viability, T/C is 92.8%.

**Q.** What about the viability, T/C (second compound 10 µM, first compound 0.1 µM) of the same molecule?
**A.** The viability, T/C was 89.1%.

**Q.** What about the viability, T/C (second compound 10 µM, first compound 0.316 µM) of the same molecule?
**A.** The viability, T/C was 87.5%.

**Q.** And the viability, T/C (second compound 10 µM, first compound 1 µM)?
**A.** The viability, T/C was 92.9%.

**Q.** What about the viability, T/C (second compound 10 µM, first compound 3.16 µM) of the same molecule?
**A.** Its viability, T/C is 92.4%.

**Q.** And the viability, T/C (second compound 10 µM, first compound 10 µM)?
**A.** Its viability, T/C is 74.3%.
